Measured values published in patent publication US20160274123A1, “One-Photon and/or Two-Photon Fluorescent Probe for Sensing Hydrogen Sulfide, Imaging Method of Hydrogen Sulfide Using Same, and Manufacturing Method Thereof” (POSTECH ACADEMY-INDUSTRY FOUNDATION, priority 2013, published 2016).
“Also recorded” adds a separate entry of the source.

What was measured:
[1] = Fluorescence change under hydrogen sulfide and biological sulfide conditions (selectivity); conditions: Compound 10 μM; Na2S 100 μM, GSH 10 mM, Cys 200 μM, Hcy 50 μM; pH 7.4 HEPES buffer; excitation 375 nm, emission 510 nm
Description: To confirm the hydrogen sulfide selectivity of Compound 2 under hydrogen sulfide and biological sulfide conditions, the fluorescence change of Compound 2 (10 μM) was observed under biological sulfide conditions (Na2S (100 μM), the same material as H2S), glutathione (GSH, 10 mM), cysteine (Cys, 200 μM), and homocysteine (Hcy, 50 μM) (using the same buffer as used in Example 1)). Here, an excitation wavelength was 375 nm, and a fluorescence emission wavelength was detected to be 510 nm.
That is, the fluorescence changes of Compounds 2, 3 and 4 (10 μM) were observed under the biological sulfide conditions (Na2S (100 μM, the same as H2S), glutathione (GSH, 10 mM), cysteine (Cys, 200 μM), homocysteine (Hcy, 50 μM)), a buffer used in the experiment was the same as used in Example 1, an excitation wavelength was 375 nm, and a fluorescence emission wavelength was detected to be 510 nm.

[2] = Fluorescence change of the probe on reaction with hydrogen sulfide in buffer; conditions: Compound 10 μM
Description: A mechanism of a fluorescence turn-on phenomenon according to a reaction between Compound 2 and hydrogen sulfide is shown in FIG. 1a, an α-β unsaturated carbonyl group of Compound 2 reacted with hydrogen sulfide to induce a ring-shape in a chemical reaction.
Therefore, to observe the fluorescence change of Compound 2 due to hydrogen sulfide, a fluorescence graph of Compound 2 was measured in a buffer (pH 7.4, 10 mM HEPES buffer). For fluorescence spectra analysis, a photon technical international fluorescence system manufactured by PTI was used, as a cell providing Compound 2 to each instrument, a standard quartz cell having a thickness of 1 cm was used. First, Compound 2 (10 μM) was treated with hydrogen sulfide at a concentration of 0 to 50 μM, and after 5 minutes, a fluorescence graph was checked.
To observe the fluorescence change of Compound 2 over time due to hydrogen sulfide, Compound 2 (10 μM) was treated with 100 μM of hydrogen sulfide (using the same buffer as used in Example 1), and a graph of fluorescence over time was analyzed. When an excitation wavelength was 375 nm, a fluorescence emission wavelength was detected to be 510 nm.
To observe the hydrogen sulfide sensitivity of Compound 2 based on fluorescence change, an amount of Na2S (the same as H2S) in Compound 2 (10 μM) was reduced. A buffer used in the experiment was the same as used in Example 1, 50 nM of Na2S was added, an excitation wavelength was 375 nm, and a fluorescence emission wavelength was detected to be 510 nm.
To observe fluorescence changes of Compound 2 due to hydrogen sulfide under various acidity (pH) conditions, the fluorescence changes were examined when Compound 2 (10 μM) bound to H2S under various acidity conditions (pH 5˜9). In other words, 100 μM of H2S reacted to Compound 2 at pH 5, 6, 7, 8, or 9, and then 5 minutes later, a fluorescence intensity was measured. Here, an excitation wavelength was 375 nm, and a fluorescence emission wavelength was detected to be 510 nm.

[3] = Fluorescence change on reaction with various types of biological substances; conditions: Compound 10 μM; amino acids, lipoic acid, anions, H2O2 each 100 μM; about 30 minutes; pH 7.4 HEPES buffer
Description: To observe fluorescence changes according to reactions between various types of biological substances and Compound 2, Compound 2 (10 μM) was reacted with a biologically-active substance (an amino acid (Ala, Glu, Lys, or Met), lipoic acid, an anion (NO^2−, SO4^2−, S2O3^2−, SCN^−, or I^−), and active oxygen (H2O2). A buffer used in the experiment was the same as used in Example 1, and the concentration of each biologically-active substance was 100 μM. Each biologically-active substance was added, and after about 30 minutes, an excitation wavelength was 375 nm, and a fluorescence emission wavelength was detected to be 510 nm.

[4] = test system: HeLa cells; test: Cell imaging using one-photon and two-photon fluorescence microscopes; assay type: cell-based, human; conditions: probe 10 μM
Description: To observe a fluorescence change according to the treatment with Compound 2 through cell imaging using one-photon and two-photon fluorescence microscopes, Compound 2 (10 μM) was treated with human cervical carcinoma cells (HeLa cells). The HeLa cells were cultured in a Dulbecco's modified eagles medium (DMEM, Hyclone) containing 10% fetal bovine serum (Hyclone) and penicillin-streptomycin (Hyclone) with 5% carbon dioxide at an ambient temperature of 37° C. to a cell density of about 20,000 cells/cm^2, and used in the experiment. The used one-photon fluorescence microscope is an LSM710 confocal microscope manufactured by Carl Ziess, and the two-photon fluorescence microscope is a Chameleon Ultra model having a Ti-sapphire laser, which is manufactured by Coherent. A lens used in the two-photon fluorescence microscope is an XLUMPLFNM, NA 1.0 model manufactured by Olympus, and a wavelength and laser power of the two-photon fluorescence microscope are 880 nm and 15 mW, respectively. […]

[5] = test system: hydrogen sulfide (H2S) in each organ (the brain, kidney, liver, spleen or lung) of a mouse; test: Mouse organ tissue imaging using two-photon fluorescence microscope; assay type: in vivo
Description: Tissue imaging per each organ of a Compound 2 treated mouse was performed using a two-photon fluorescence microscope. That is, the distribution of hydrogen sulfide (H2S) in each organ (the brain, kidney, liver, spleen or lung) of a mouse was confirmed using Compound 2. To this end, a set (1′) was prepared by injecting Compound 2 into the abdominal cavity of a live mouse and extracting an organ, and a set (2′) was prepared by extracting each organ of a mouse and immersing the organ in a solution of Compound 2. The mouse used in the experiment was a C57BL6 type (SAMTAKO Corp.), which is five weeks old. More particularly, for the set (1′), 20 μL of a 10 mM solution of Compound 2, which had been taken and diluted in 280 μL of a PBS (100 mM, pH 7.4) buffer, was injected into the abdominal cavity of a mouse twice a day for a total of 5 days, and then each organ was extracted. The extracted organ was frozen in dry ice for 5 minutes, crushed into smaller pieces with a hammer, and cut to a thickness of 16 μm using a section machine (Cryostat machine, Leica, CM3000 model). […] Subsequently, the resultant sample was washed three times with a PBS buffer, covered with a mount solution (Gel Mount, BIOMEDA), and then imaged using a two-photon fluorescence microscope, which is the same as used in Example 7. However, an excitation wavelength and laser power of the two-photon fluorescence microscope were 880 nm and 40 mW, respectively. Also, for the set (2′), first, each organ of a mouse was extracted and immersed in a solution (10 μM) of Compound 2 for 10 minutes, and then a sample prepared as described above was imaged by the same method used for the set (1′).

[6] = test system: HeLa cells; test: Cytotoxicity experiment by MTT method; assay type: cell-based, human
Description: To confirm the cytotoxicity of Compound 2 according to the present invention, a cytotoxicity experiment in HeLa cells was performed by an MTT method. That is, the Hela cells prepared by the same method as used in Example 7 were treated with Compound 2 at each concentration (0˜100 μM). In addition, to confirm the cytotoxicity, 25 μL of 3-(4,5-dimethldiazol-2-yl)-2, 5-diphenyltetrazolium bromide (MTT) having a concentration of 5 mg/mL was added. The cells were cultured at 37° C. for about 2 hours, treated with 100 μL of a solubilizing solution (50% dimethylformamide, 20% SDS, pH 7.4), and cultured at 37° C. for 24 hours, and then the absorbance was measured at 570 nm.

[7] = 100 μM hydrogen sulfide, pH 7.4 10 mM HEPES buffer, excitation 375 nm, emission 510 nm

COc1cccc(C=O)c1/C=C/C(=O)c1ccc2cc(NCCO)ccc2c1 [Compound 3, (E)-2-(3-(6-(2-hydroxyethylamino)naphthalene-2-yl)-3-oxoprop-1-enyl)-3-methoxybenzaldehyde]
selectivity to hydrogen sulfide under biological sulfide conditions [1]: relatively lower selectivity to hydrogen sulfide than Compound 2

O=Cc1ccccc1/C=C/C(=O)c1ccc2cc(NCCO)ccc2c1 [Compound 4, (E)-2-(3-(6-(2-hydroxyethylamino)naphthalene-2-yl)-3-oxoprop-1-enyl)benzaldehyde]
selectivity to hydrogen sulfide under biological sulfide conditions [1]: did not have selectivity to hydrogen sulfide

COc1cc(C=O)c(/C=C/C(=O)c2ccc3cc(NCCO)ccc3c2)c(OC)c1 [Compound 2, (E)-2-(3-(6-(2-hydroxyethylamino)naphthalene-2-yl)-3-oxoprop-1-enyl)-3,5-dimethoxybenzaldehyde]
signal to noise ratio of fluorescence turn-on ([2]; 50 nM Na2S, about 5 minutes after addition, pH 7.4 HEPES buffer): ≥ 3
fluorescence change due to hydrogen sulfide under various acidity (pH) conditions ([2]; 100 μM H2S, pH 5, 6, 7, 8 or 9, 5 minutes): the sharpest increase in fluorescence was shown at neutral pH
time to approach the maximum fluorescence level [2, 7]: ≤ 5 min
time to saturation of fluorescence emission [2, 7]: about 10 minutes
fluorescence change with increasing concentration of hydrogen sulfide ([2]; hydrogen sulfide 0 to 50 μM, after 5 minutes, pH 7.4 10 mM HEPES buffer, excitation 375 nm, emission 510 nm): fluorescence intensity was increased
low concentration of Na2S (H2S) at which fluorescence can be observed (sensitivity) ([2]; pH 7.4 HEPES buffer, excitation 375 nm, emission 510 nm): 50 nM
selectivity to hydrogen sulfide under biological sulfide conditions [1]: sufficient fluorescence turn-on phenomenon only in a reaction with Na2S; also recorded: high selectivity to hydrogen sulfide
selective fluorescence turn-on versus various biologically-active substances [3]: only reacts with hydrogen sulfide (H2S)
permeation into cells [4]: easily permeates into cells
fluorescence change in cells treated only with the probe ([4]; cultured 30 minutes, set (2)): showed an increase in fluorescence
two-photon fluorescence signal in organs after abdominal injection ([5]; set (1′): C57BL6 mouse, injected into the abdominal cavity twice a day for 5 days, organs extracted): signals are increased in the brain, kidney, liver, spleen and lung
permeation into organs after abdominal injection ([5]; set (1′): living C57BL6 mouse, abdominal injection): permeated throughout the organ, particularly, into the brain
two-photon fluorescence change in extracted organs immersed in probe solution ([5]; set (2′): extracted mouse organs immersed in 10 μM solution for 10 minutes): strong fluorescence changes are shown in the brain, liver and lung
cytotoxicity ([6]; 0˜100 μM): not toxic to the cells
cell viability ([6]; concentrations until 100 μM): ≥ 95%
